Source: patent US9795140B2, “Molecules having pesticidal utility, and intermediates, compositions, and processes, related thereto” (priority 2015, dated 2017)

Assays:
Assay type in all cases: in vivo
[1] = test system: Yellow Fever Mosquito (Aedes aegypti, AEDSAE); experiment: Bioassay on Yellow Fever Mosquito (YFM) larvae, 96-well plate; settings: about 1 day-old larvae, room temperature, 3 days, scored on mortality
Experimental: Certain molecules disclosed in this document were tested against YFM using procedures described in the following paragraph. In the reporting of the results, the “GPA & YFM Rating Table” was used (See Table Section).
Master plates containing 400 μg of a molecule dissolved in 100 μL of dimethyl sulfoxide (DMSO) (equivalent to a 4000 ppm solution) are used. A master plate of assembled molecules contains 15 μL per well. To this plate, 135 μL of a 90:10 water/acetone mixture is added to each well. A robot is programmed to dispense 15 μL aspirations from the master plate into an empty 96-well shallow plate (“daughter” plate). There are 6 reps (“daughter” plates) created per master. The created “daughter” plates are then immediately infested with YFM larvae.
The day before plates are to be treated, mosquito eggs are placed in Millipore water containing liver powder to begin hatching (4 g. into 400 mL). After the “daughter” plates are created using the robot, they are infested with 220 μL of the liver powder/larval mosquito mixture (about 1 day-old larvae). After plates are infested with mosquito larvae, a non-evaporative lid is used to cover the plate to reduce drying. Plates are held at room temperature for 3 days prior to grading. After 3 days, each well is observed and scored based on mortality. The results are indicated in the table entitled “Table ABC: Biological Results” (See Table Section).

[2] = test system: Beet Armyworm (Spodoptera exigua, LAPHEG); experiment: Bioassay on Beet Armyworm (BAW), 128-well diet tray assay; settings: 168 h, 50 μg/cm^2 on artificial diet, second instar larvae, 25° C., five to seven days, average of eight wells, read-out: BAW % Control (or Mortality) rating
Experimental: (§1) Certain molecules disclosed in this document were tested against BAW and CL using procedures described in the following examples. In the reporting of the results, the “BAW & CL Rating Table” was used (See Table Section).
Bioassays on BAW were conducted using a 128-well diet tray assay. One to five second instar BAW larvae were placed in each well (3 mL) of the diet tray that had been previously filled with approximately 1.5 mL of artificial diet to which 50 μg/cm^2 of the test molecule (dissolved in 50 μL of 90:10 acetone-water mixture) had been applied (to each of eight wells) and then allowed to dry. Trays were covered with a clear self-adhesive cover, vented to allow gas exchange, and held at 25° C., 14:10 light-dark for five to seven days. Percent mortality was recorded for the larvae in each well; activity in the eight wells was then averaged. The results are indicated in the table entitled “Table ABC: Biological Results” (See Table Section).

[3] = test system: Cabbage Looper (Trichoplusia ni, TRIPNI); experiment: Bioassay on Cabbage Looper (CL), 128-well diet tray assay; settings: 168 h, 50 μg/cm^2 on artificial diet, second instar larvae, 25° C., five to seven days, average of eight wells, read-out: CL % Control (or Mortality) rating
Experimental: as §1
Bioassays on CL were conducted using a 128-well diet tray assay, one to five second instar CL larvae were placed in each well (3 mL) of the diet tray that had been previously filled with 1 mL of artificial diet to which 50 μg/cm^2 of the test molecule (dissolved in 50 μL of 90:10 acetone-water mixture) had been applied (to each of eight wells) and then allowed to dry. Trays were covered with a clear self-adhesive cover, vented to allow gas exchange, and held at 25° C., 14:10 light-dark for five to seven days. Percent mortality was recorded for the larvae in each well; activity in the eight wells was then averaged. The results are indicated in the table entitled “Table ABC: Biological Results” (See Table Section).

SMILES | YFM % Control (or Mortality) rating [1] | mortality at 50 µg/cm2 [2] [%] | mortality at 50 µg/cm2 [3] [%]
O=C(NCC(F)(F)F)c1cc(NC(=O)[C@H]2[C@H](c3ccc(Br)c(Br)c3)C2(Cl)Cl)ccc1Cl (relative stereo) [F111, 2-Chloro-5-(trans-2,2-dichloro-3-(3,4-dibromophenyl)cyclopropane-1-carboxamido)-N-(2,2,2-trifluoroethyl)benzamide] | A (80-100) | 50 to 100 | 50 to 100
O=C(NCCC(F)(F)F)c1cc(NC(=O)[C@H]2[C@H](c3cc(Cl)cc(Cl)c3)C2(Cl)Cl)c(Cl)cc1Cl (relative stereo) [F102, trans-2,4-Dichloro-5-(2,2-dichloro-3-(3,5-dichlorophenyl)cyclopropane-1-carboxamido)-N-(3,3,3-trifluoropropyl)benzamide] | A (80-100) | 0 to 50 | 0
COc1c(Cl)cc([C@H]2[C@H](C(=O)Nc3ccc(Cl)c(C(=O)NCC(F)(F)F)c3)C2(Cl)Cl)cc1Cl (relative stereo) [F87, trans-2-Chloro-5-(2,2-dichloro-3-(3,5-dichloro-4-methoxyphenyl)cyclopropane-1-carboxamido)-N-(2,2,2-trifluoroethyl)benzamide] | B (More than 0-Less than 80) | 50 to 100 | 50 to 100
CSCCN(C)C(=O)c1cc(NC(=O)[C@H]2[C@H](c3cc(Cl)cc(Cl)c3)C2(Cl)Cl)ccc1Cl (relative stereo) [F68, trans-2-Chloro-5-(2,2-dichloro-3-(3,5-dichlorophenyl)cyclopropane-1-carboxamido)-N-methyl-N-(2-(methylthio)ethyl)benzamide] | D (No activity noticed in this bioassay) | 50 to 100 | 50 to 100
O=C(NCC(F)(F)F)c1cc(NC(=O)[C@H]2[C@H](c3cc(F)cc(Br)c3)C2(Cl)Cl)ccc1Cl (relative stereo) [F123, 5-(trans-3-(3-Bromo-5-fluorophenyl)-2,2-dichlorocyclopropane-1-carboxamido)-2-chloro-N-(2,2,2-trifluoroethyl)benzamide] | A (80-100) | 50 to 100 | 50 to 100
CNC(=O)c1cc(NC(=O)[C@H]2[C@H](c3cc(Cl)cc(Cl)c3)C2(Cl)Cl)ccc1Cl (relative stereo) [F1, trans-2-chloro-5-(2,2-dichloro-3-(3,5-dichlorophenyl)cyclopropane-1-carboxamido)-N-methylbenzamide] | A (80-100) | 50 to 100 | 50 to 100
O=C(NCC(F)(F)F)c1cc(NC(=O)[C@H]2[C@H](c3ccc(F)c(Cl)c3)C2(Cl)Cl)ccc1Cl (relative stereo) [F105, trans-2-Chloro-5-(2,2-dichloro-3-(3-chloro-4-fluorophenyl)cyclopropane-1-carboxamido)-N-(2,2,2-trifluoroethyl)benzamide] | A (80-100) | 50 to 100 | 50 to 100
CN(CCC(F)(F)F)C(=O)c1cc(NC(=O)[C@H]2[C@H](c3cc(Cl)cc(Cl)c3)C2(Cl)Cl)ccc1Cl (relative stereo) [F64, trans-2-Chloro-5-(2,2-dichloro-3-(3,5-dichlorophenyl)cyclopropane-1-carboxamido)-N-methyl-N-(3,3,3-trifluoropropyl)benzamide] | D (No activity noticed in this bioassay) | 50 to 100 | 50 to 100
C=CCONC(=O)c1cc(NC(=O)[C@H]2[C@H](c3cc(Cl)c(Cl)c(Cl)c3)C2(Cl)Cl)ccc1Cl (relative stereo) [F11, trans-N-(Allyloxy)-2-chloro-5-(2,2-dichloro-3-(3,4,5-trichlorophenyl)cyclopropane-1-carboxamido)benzamide] | – | 50 to 100 | 50 to 100
C[S+]([O-])CCNC(=O)c1cc(NC(=O)[C@H]2[C@H](c3cc(Cl)cc(Cl)c3)C2(Cl)Cl)ccc1Cl (relative stereo) [F74, trans-2-chloro-5-(2,2-dichloro-3-(3,5-dichlorophenyl)cyclopropane-1-carboxamido)-N-(2-(methylsulfinyl)ethyl)benzamide] | – | 50 to 100 | 50 to 100
O=C(NCC(F)(F)F)c1cc(NC(=O)C2C(c3cc(F)c(F)c(F)c3)C2(Cl)Cl)ccc1Cl (stereo not drawn) [F127, 2-Chloro-5-cis-(2,2-dichloro-3-(3,4,5-trifluorophenyl)cyclopropane-1-carboxamido)-N-(2,2,2-trifluoroethyl)benzamide] | A (80-100) | – | –
CN(C)CCCCNC(=O)c1cc(NC(=O)[C@H]2[C@H](c3cc(Cl)cc(Cl)c3)C2(Cl)Cl)ccc1Cl (relative stereo) [F50, trans-2-Chloro-5-(2,2-dichloro-3-(3,5-dichlorophenyl)cyclopropane-1-carboxamido)-N-(4-(dimethylamino)butyl)benzamide] | – | 0 | 50 to 100
O=C(NCC(F)(F)F)c1cc(NC(=O)[C@H]2[C@H](c3cc(Cl)cc(Cl)c3)C2(Cl)Cl)cc(Cl)c1Cl (relative stereo) [F93, trans-2,3-Dichloro-5-(2,2-dichloro-3-(3,5-dichlorophenyl)cyclopropane-1-carboxamido)-N-(2,2,2-trifluoroethyl)benzamide] | – | 50 to 100 | 50 to 100
CN(CC#N)C(=O)c1cc(NC(=O)[C@H]2[C@H](c3cc(Cl)cc(Cl)c3)C2(Cl)Cl)ccc1Cl (relative stereo) [F66, trans-2-Chloro-N-(cyanomethyl)-5-(2,2-dichloro-3-(3,5-dichlorophenyl)cyclopropane-1-carboxamido)-N-methylbenzamide] | – | 50 to 100 | 50 to 100
C=CCONC(=O)c1cc(NC(=O)[C@H]2[C@H](c3cc(Cl)cc(Cl)c3)C2(Cl)Cl)ccc1Cl (relative stereo) [F10, trans-N-(Allyloxy)-2-chloro-5-(2,2-dichloro-3-(3,5-dichlorophenyl)cyclopropane-1-carboxamido)benzamide] | – | 50 to 100 | 50 to 100
C#CCN(C)C(=O)c1cc(NC(=O)[C@H]2[C@H](c3cc(Cl)cc(Cl)c3)C2(Cl)Cl)ccc1Cl (relative stereo) [F65, trans-2-Chloro-5-(2,2-dichloro-3-(3,5-dichlorophenyl)cyclopropane-1-carboxamido)-N-methyl-N-(prop-2-yn-1-yl)benzamide] | – | 50 to 100 | 50 to 100
O=C(NCc1ccccn1)c1cc(NC(=O)[C@H]2[C@H](c3cc(Cl)cc(Cl)c3)C2(Cl)Cl)ccc1Cl (relative stereo) [F8, trans-2-Chloro-5-(2,2-dichloro-3-(3,5-dichlorophenyl)cyclopropane-1-carboxamido)-N-(pyridin-2-ylmethyl)benzamide] | – | 50 to 100 | 50 to 100
O=C(CNC(=O)c1cc(NC(=O)[C@H]2[C@H](c3cc(Cl)cc(Cl)c3)C2(Cl)Cl)ccc1Cl)NCC(F)(F)F (relative stereo) [F5, trans-2-Chloro-5-(2,2-dichloro-3-(3,5-dichlorophenyl)cyclopropane-1-carboxamido)-N-(2-oxo-2-((2,2,2-trifluoroethyl)amino)ethyl)benzamide] | – | 50 to 100 | 50 to 100
O=C(NCc1ccccn1)c1cc(NC(=O)[C@H]2[C@H](c3cc(Cl)c(Cl)c(Cl)c3)C2(Cl)Cl)ccc1Cl (relative stereo) [F9, trans-2-Chloro-5-(2,2-dichloro-3-(3,4,5-trichlorophenyl)cyclopropane-1-carboxamido)-N-(pyridin-2-ylmethyl)benzamide] | – | 50 to 100 | 50 to 100
